Experimental data published in US11654136B2, “Phosphoinositide 3-kinase inhibitor with a zinc binding moiety” (Curis, Inc., priority 2011, dated 2023).

Columns and labels:
[1] = system: HDAC activity (Ac-H3, Ac-Tub, Ac-p53, p53, p21) in H460 cells; assay: Western blot / in-cell-western of HDAC markers in H460 cells; assay type: cell-based
Experimental: (§1) Cell extracts were prepared in the presence of SDS and 2-mercaptoethanol and resolved in polyacrylamide gels. Proteins were transferred to nitrocellulose filter and blotting was done using standard procedures with blocking solutions (Li-Cor Bioscience) containing the indicated primary antibody. Primary antibodies against p-EGFR, EGFR, p-HER2, HER2, p-HER3, HER3, p-MET, MET, p-bRaf, p-cRaf, pMEK, MEK, p-ERK, ERK and tubulin were purchased from Cell Signaling Technology. Secondary antibody conjugated with IRdye 680, 800CW were used and the signal was detected with Li-Cor Odyssey Imager.
(§2) Immunocytochemistry was performed on cells grown in monolayer culture that were treated as indicated in the figure legends and then fixed in 4% (w/v) paraformaldehyde. After washing in 1×PBS, immunostaining was performed in Li-Cor blocking solution containing the indicated primary antibodies and IRDye 680- or 800CW-conjugated secondary antibodies. For in-cell-western, a Li-Cor Odyssey infrared imager was used for detection and quantification of results.
(§3) Cells were treated with DMSO alone (vehicle control) or containing test compounds for 1 h before Western blot or in-cell-western was performed.

[2] = Pharmacokinetics in SCID mice bearing Daudi tumors; assay type: in vivo; settings: for Area under the Curve / Half-life / Cmax / Tmax: oral gavage; for Area under the Curve / Cmax / Tmax: dose not stated; for Half-life: dose of the table not stated (25, 50 or 100 mg/kg); for Cmax / Tmax: female, mouse
Experimental: Daudi (non-Hodgkin's lymphoma cell line) cells were implanted into female Scid (severe […] immune-deficient) mice.
At various time points following compound administration, three mice per time point were euthanized with CO2, and blood and tumor tissues were collected. Blood was collected into tubes containing sodium heparin. The plasma was separated via centrifugation. Plasma and tissues were stored at −80° C. for later analysis. A PE Sciex API-3000 LC-MS/MS system (Applied Biosystems, Inc., Foster City, Calif.) was used to analyze compound concentrations in plasma.

[3] = system: SU-DHL4 (diffuse large B-cell lymphoma cell line) xenograft tumors; assay: SU-DHL4 xenograft tumor model; assay type: in vivo, nude mice
Experimental: (§4) SU-DHL4 (diffuse large B-cell lymphoma cell line), H2122 (human NSCLC cell line), Daudi (non-Hodgkin's lymphoma cell line), and OPM2 (multiple myeloma tumor cell line) cells were implanted into either nude or Scid (severe […] immune-deficient) mice. […]. […] The control groups were treated with vehicle using the same dosing schedule as the corresponding active group.
(§5) In another study, the Daudi tumor group was dosed at 50 mg/Kg twice a day for five days per week. […] The SU-DHL4 tumor group was dosed at 100 mg/Kg orally or 50 mg/Kg intravenously.
(§6) Tumors were measured during the study period with an electronic caliper, and body weights were measured twice a week. The following formula was used to calculate the tumor volume: […] Percentage of tumor volume change was used to describe compound activity over the treatment period.

[4] = system: MM1S subcutaneous tumor; assay: MM1S xenograft model; assay type: in vivo, SCID/Beige mice; settings: oral gavage five times per week
Experimental: Female SCID/Beige mice at age 4 weeks were housed in ventilated micro-isolator cages (INNOCAGE®IVC, Innovive Inc., San Diego, Calif.) in a controlled climate, fed with sterile high-fat diet (Problab-RMH 2000) ad libitum and provided with sterilized water. All housing and supplies for SCID/Beige mice were sterilized by autoclaving before use. Mice were inspected daily including weekends/holidays by trained animal facility personnel and investigators. All animal procedures were performed under sterile conditions within a biosafety cabinet (for injections) or laminar flow hood (for animal husbandry and non-invasive procedures).
MM1S human […] cells (Gold-Leikin R E, et al., J Lab Clin Invest. 1980; 113:335-345) were originally obtained from peripheral blood of a multiple myeloma patient. Cryopreserved cells were thawed in a 37° C. water bath and cultured in RPMI medium plus 10% Fetal Bovine Serum (FBS) in a tissue culture incubator at 5% CO2. Cells were sent to outside vendors for contaminants and rodent pathogen screening intended to rule out contamination by mycoplasma (by PCR) and/or virus (by MAP test, Mouse Antibody Production). […] The implanted mice were monitored for general health and tumor development daily.
Tumors were detectable about two weeks following implantation. Tumor size was measured with a caliper. […]
During each animal study, tumors were measured with calipers, tumor size determined using the above mentioned formula, and tumor size changes in percentage calculated. Mouse body weights were measured with a scale twice per week. […] In addition to the determination of tumor size changes, the last tumor measurement was used to generate the tumor weight change ratio (T/C value), a standard metric developed by the National Cancer Institute (NCI) for xenograft tumor evaluation T/C values were calculated using the following formula: % T/C=100×ΔT/ΔC if ΔT>0. […]
The treatment period was 15 days. Tumor sizes and body weights were measured again on the last day of the study.

[5] = Daudi xenograft tumor model; assay type: in vivo; settings: Scid, mouse, in vivo; oral; Daudi model; read-out: maximum tolerated dose (MTD)
Experimental: as §4, §5, §6

[6] = system: Daudi (non-Hodgkin's lymphoma cell line) xenograft tumors; assay: Daudi xenograft tumor model; assay type: in vivo
Experimental: as §4, §5, §6

[7] = system: PI3K pathway signaling (AKT, 4EBP-1, p70S6) in H460 cells; assay: Western blot / in-cell-western of PI3K pathway signaling in H460 cells; assay type: cell-based
Experimental: as §1, §2, §3

[8] = Plasma, Daudi tumor-bearing Scid mice

## COc1ccc(-c2nc(N3CCOCC3)c3sc(CN(C)c4ncc(C(=O)NO)cn4)cc3n2)cn1 [Compound 1, N-hydroxy-2-(((2-(6-methoxypyridin-3-yl)-4-morpholinothieno[3,2-d]pyrimidin-6-yl)methyl)(methyl)amino)pyrimidine-5-carboxamide]
[1]
  Levels of acetylated-tubulin, histone 3, p53 and p21 versus dose: increases levels of acetylated-tubulin (FIG. 7B), acetylated histone 3 (FIG. 7C), acetylated p53 (FIG. 7D), and acetylated p21 (FIG. 7E) in a dose-dependent manner
  Total p53 and p21 content: upregulates total p53 and p21 content
[1]; 1 μmon, 1 h
  Levels of acetylated histone 3, tubulin and p53: increases the levels of acetylated histone 3 (Ac-H3), tubulin (Ac-Tub), and p53 (Ac-p53)
[2]; [8]
  Area under the Curve: 1899.26 ng/mL * hr
  Half-life: 464 min
  Cmax: 2290 ng/mL
  Tmax: 14.4 min
[2]; Tumor
  Area under the Curve: 3973.56 ng/mL * hr
  Half-life: 757.2 min
  Cmax: 1040 ng/mL
  Tmax: 6 min
[2]; oral 25, 50 and 100 mg/kg
  Distribution between plasma and tumor tissue: preferentially accumulates in tumor tissue in a dose dependent manner
[2]; oral 25, 50 and 100 mg/kg, Daudi tumor-bearing Scid mice
  Plasma exposure versus dose: dose-dependent exposure
[3]; intravenous (IV) 50 mg/kg
  Tumor growth: strongly inhibited tumor growth
[3]; orally (PO) 100 mg/kg
  Tumor growth: strongly inhibited tumor growth
[4]; day 14, p<0.0001
  T/C value: 27.37%
[4]; single agent, 15 days
  Body weight and side effects: No body weight loss or other side effects were observed
  Tumor growth: inhibited tumor growth
[5]
  MTD: 100 mg/kg
[6]; oral 50 mg/Kg twice a day, five days per week
  Tumor growth: efficacious
[6]; oral 100 mg/Kg, each treatment at its MTD
  Antitumor activity compared with GDC-0941, vorinostat and their combination: more efficacious than vorinostat, GDC-0941, or a combination of both
[6]; oral 25, 50 or 100 mg/Kg five day per week
  Tumor growth versus dose: inhibited Daudi tumor growth in a dose-dependent manner
[7]
  Phosphorylation of Akt: persistently and potently inhibits phosphorylation of Akt in a dose-dependent manner
[7]; 1 μmon
  Activation of AKT, 4EBP-1 and p70S6: inhibits the activation of AKT and the downstream signaling proteins 4EBP-1 and p70S6
